The numbers were not newly measured in patent US20120141479A1, “Histone Deacetylase Inhibitors Sensitize Cancer Cells To Epidermal Growth Factor Inhibitors” (priority 2007, published 2012), which cites them from elsewhere.

Molecules are shown by their SMILES.

In this series the test system is E-cad. Conditions: lung cancer cell lines; cited from earlier work.

In the case of `CC(/C=C/C(=O)NO)=C\[C@@H](C)C(=O)c1ccc(N(C)C)cc1` [trichostatin A], the “effect of inhibiting HDAC on E-cad” value is given as “activation of E-cad”.
